Laboratory results as given in patent US20240287124A1, “PRODRUGS OF 4'-SUBSTITUTED NUCLEOSIDE REVERSE TRANSCRIPTASE INHIBITORS” (Merck Sharp & Dohme LLC, priority 2023, published 2024).
≈ marks a conversion by molar mass, not a printed value. Like-named read-outs stand apart in the source and are kept apart here.

Tests used:
[1] = test system: HIV-1 wild-type (R8) virus; test: Viral KINetics in Green cells (VIKING) assay, HIV-1 replication in MT4-GFP reporter cells; assay type: cell-based; settings: Human immunodeficiency virus 1, 10% normal human serum, MT4-GFP cells, HIV-1 wild-type (R8); read-out: Viking (10% NHS), IC50
Outline: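 MT4-GFP cells infected overnight with HIV-1 R8 at MOI ~0.01, then added to compound plates in RPMI with 10% normal human serum; 10-point 3-fold dilutions (typically 4 μM-0.2 nM). Green cells counted at ~48 h and 72 h; reproductive ratio (72 h/48 h) gave % inhibition, IC50 by 4-parameter fit.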

[2] = Aqueous solubility in PBS, pH 7.4; assay type: physicochemical; settings: pH 7.4, aqueous buffer, thermodynamic from solid, pH 7.4 phosphate buffered saline, 24 hours, amorphous or crystalline material, read-out: Aqu. Solubility
Experimental: Aqueous solubility of the compounds was determined by suspending excess solid (typically 0.3-0.5 mg) in PBS, pH 7.4, at a concentration of 0.5 mg/mL. The suspension was vortexed for 10-30 seconds to wet the material and stirred at 600 rpm for 24 hours. For analysis by UPLC, 150 μL aliquot sample was transferred into a […] PVDF spin filter and centrifuged at 14,000 rpm for 5 minutes. 100 μL of the filtrate was diluted with 100 μL 1:1 Acetonitrile (ACN):H2O. The resultant samples were analyzed using UPLC and quantified against a standard curve of the compound of interest dissolved in 1:1 ACN:H2O. The retains of the solids were checked by XRPD and PLM to determine if the phase of the material was crystalline or amorphous.

| SMILES | IC50 [1] [nM] | solubility at 24 h ([2]; phosphate buffered saline) [µg/mL] | solubility at 24 h [2] [µg/mL] |
| --- | --- | --- | --- |
| C#C[C@]1(COC(=O)OCc2oc(=O)oc2C)O[C@@H](n2ccc3c(N)nc(Cl)nc32)C[C@@H]1OC(=O)OCc1oc(=O)oc1C [Example 53, ((2R,3S,5R)-5-(4-amino-2-chloro-7H-pyrrolo[2,3-d]pyrimidin-7-yl)-2-ethynyl-3-((((5-methyl-2-oxo-1,3-dioxol-4-yl)methoxy)carbonyl)oxy)tetrahydrofuran-2-yl)methyl ((5-methyl-2-oxo-1,3-dioxol-4-yl)methyl) carbonate] | 1.7 | < 1 |  |
| C#C[C@]1(CO)O[C@@H](n2ccc3c(N)nc(Cl)nc32)C[C@@H]1OC(=O)OCCCCCCCCCC [Example 10, (2R,3S,5R)-5-(4-amino-2-chloro-7H-pyrrolo[2,3-d]pyrimidin-7-yl)-2-ethynyl-2-(hydroxymethyl)tetrahydrofuran-3-yl decyl carbonate] | 9.9 | < 1 |  |
| C#C[C@]1(COC(=O)OCCCCCCCCCC)O[C@@H](n2ccc3c(N)nc(Cl)nc32)C[C@@H]1O [Example 18, ((2R,3S,5R)-5-(4-amino-2-chloro-7H-pyrrolo[2,3-d]pyrimidin-7-yl)-2-ethynyl-3-hydroxytetrahydrofuran-2-yl)methyl decyl carbonate] | 2.1 | 0.45 (≈ 0.913 µM) |  |
| C#C[C@]1(COC(=O)CCCCCCCCC)O[C@@H](n2ccc3c(N)nc(Cl)nc32)C[C@@H]1O [Example 20, ((2R,3S,5R)-5-(4-amino-2-chloro-7H-pyrrolo[2,3-d]pyrimidin-7-yl)-2-ethynyl-3-hydroxytetrahydrofuran-2-yl)methyl decanoate] | 2.8 | < 1 |  |
| C#C[C@]1(CO)O[C@@H](n2ccc3c(N)nc(Cl)nc32)C[C@@H]1OC(=O)OCc1oc(=O)oc1C [Example 56, (2R,3S,5R)-5-(4-amino-2-chloro-7H-pyrrolo[2,3-d]pyrimidin-7-yl)-2-ethynyl-2-(hydroxymethyl)tetrahydrofuran-3-yl((5-methyl-2-oxo-1,3-dioxol-4-yl)methyl) carbonate] | 2.3 | 122 (≈ 262 µM) |  |
| C#C[C@]1(CO)O[C@@H](n2ccc3c(N)nc(Cl)nc32)C[C@@H]1OC(=O)OCCCCCCCC [Example 79] | 4.3 | < 1 |  |
| C#C[C@]1(CO)O[C@@H](n2ccc3c(N)nc(Cl)nc32)C[C@@H]1OC(=O)OCCCCCCC [Example 153] | 3.8 | < 1 |  |
| C#C[C@]1(COC(=O)OCCCCCCCC)O[C@@H](n2ccc3c(N)nc(Cl)nc32)C[C@@H]1O [Example 39, ((2R,3S,5R)-5-(4-amino-2-chloro-7H-pyrrolo[2,3-d]pyrimidin-7-yl)-2-ethynyl-3-hydroxytetrahydrofuran-2-yl)methyl octyl carbonate] | 3 | < 1 |  |
| C#C[C@]1(COC(=O)CCCC[C@@H]2SC[C@@H]3NC(=O)N[C@@H]32)O[C@@H](n2ccc3c(N)nc(Cl)nc32)C[C@@H]1O [Example 145] | 3.2 | 38 (≈ 71 µM) |  |
| C#C[C@]1(COC(=O)CCCCCCCCC)O[C@@H](n2ccc3c(N)nc(Cl)nc32)C[C@@H]1OC(C)=O [Example 48, ((2R,3S,5R)-3-acetoxy-5-(4-amino-2-chloro-7H-pyrrolo[2,3-d]pyrimidin-7-yl)-2-ethynyltetrahydrofuran-2-yl)methyl decanoate] | 35 | < 1 |  |
| C#C[C@]1(COC(=O)CCCC[C@@H]2SC[C@@H]3NC(=O)N[C@@H]32)O[C@@H](n2ccc3c(N)nc(Cl)nc32)C[C@@H]1OC(=O)CCCc1ccccc1 [Example 190] | 6.5 | < 1 |  |
| C#C[C@]1(COC(=O)OCc2ccccc2)O[C@@H](n2ccc3c(N)nc(Cl)nc32)C[C@@H]1OC(=O)CCC [Example 194] | 17 | 2.3 (≈ 4.48 µM) |  |
| C#C[C@]1(CO)O[C@@H](n2ccc3c(N)nc(Cl)nc32)C[C@@H]1OC(=O)OCC(CC)CC [Example 78] | 6.7 | 2 (≈ 4.58 µM) |  |
| C#C[C@]1(COC(=O)OCCc2ccccc2)O[C@@H](n2ccc3c(N)nc(Cl)nc32)C[C@@H]1O [Example 124] | 3.6 | 71 (≈ 155 µM) |  |
| C#C[C@]1(COC(=O)CCC23CC4CC(CC(C4)C2)C3)O[C@@H](n2ccc3c(N)nc(Cl)nc32)C[C@@H]1O [Example 62, ((2R,3S,5R)-5-(4-amino-2-chloro-7H-pyrrolo[2,3-d]pyrimidin-7-yl)-2-ethynyl-3-hydroxytetrahydrofuran-2-yl)methyl 3-(adamantan-1-yl)propanoate] | 3.9 | < 1 |  |
| C#C[C@]1(CO)O[C@@H](n2ccc3c(NC(=O)CCCCCCCCCCC)nc(Cl)nc32)C[C@@H]1O [Example 21, N-(2-chloro-7-((2R,4S,5R)-5-ethynyl-4-hydroxy-5-(hydroxymethyl)tetrahydrofuran-2-yl)-7H-pyrrolo[2,3-d]pyrimidin-4yl)dodecanamide] | 18 | < 1 |  |
| C#C[C@]1(CO)O[C@@H](n2ccc3c(N)nc(Cl)nc32)C[C@@H]1OC(=O)c1ccccn1 [Example 28, (2R,3S,5R)-5-(4-amino-2-chloro-7H-pyrrolo[2,3-d]pyrimidin-7-yl)-2-ethynyl-2-(hydroxymethyl)tetrahydrofuran-3-yl picolinate] | 4.3 | 68 (≈ 164 µM) |  |

| SMILES | IC50 [1] [nM] | solubility at 24 h ([2]; phosphate buffered saline) [µg/mL] | solubility at 24 h [2] [µg/mL] |
| --- | --- | --- | --- |
| C#C[C@]1(CO)O[C@@H](n2ccc3c(NC(=O)CCCC)nc(Cl)nc32)C[C@@H]1O [Example 22, N-(2-chloro-7-((2R,4S,5R)-5-ethynyl-4-hydroxy-5-(hydroxymethyl)tetrahydrofuran-2-yl)-7H-pyrrolo[2,3-d]pyrimidin-4-yl)pentanamide] | 199 | 362 (≈ 921 µM) |  |
| C#C[C@]1(CO)O[C@@H](n2ccc3c(N)nc(Cl)nc32)C[C@@H]1OC(C)=O [Example 180] | 27 | 257 (≈ 733 µM) |  |
| C#C[C@]1(COCOC(=O)OCCCCCCCCCCCC)O[C@@H](n2ccc3c(N)nc(Cl)nc32)C[C@@H]1O [Example 134] | 3.7 | < 1 |  |
| C#C[C@]1(COC(=O)Oc2ccccc2)O[C@@H](n2ccc3c(N)nc(Cl)nc32)C[C@@H]1O [Example 17, ((2R,3S,5R)-5-(4-amino-2-chloro-7H-pyrrolo[2,3-d]pyrimidin-7-yl)-2-ethynyl-3-hydroxytetrahydrofuran-2-yl)methyl phenyl carbonate] | 1.4 | 164 (≈ 382 µM) |  |
| C#C[C@]1(COC(=O)C2CCCCC2)O[C@@H](n2ccc3c(N)nc(Cl)nc32)C[C@@H]1O [Example 88] | 4.4 | 157 (≈ 375 µM) |  |
| C#C[C@]1(COC(=O)OCCC23CC4CC(CC(C4)C2)C3)O[C@@H](n2ccc3c(N)nc(Cl)nc32)C[C@@H]1O [Example 35, 2-(adamantan-1-yl)ethyl (((2R,3S,5R)-5-(4-amino-2-chloro-7H-pyrrolo[2,3-d]pyrimidin-7-yl)-2-ethynyl-3-hydroxytetrahydrofuran-2-yl)methyl) carbonate] | 6.2 | < 1 |  |
| C#C[C@]1(COC(=O)OCc2oc(=O)oc2C)O[C@@H](n2ccc3c(N)nc(Cl)nc32)C[C@@H]1O [Example 143] | 2.9 | 229 (≈ 493 µM) |  |
| C#C[C@]1(COC(=O)OCc2ccccc2)O[C@@H](n2ccc3c(N)nc(Cl)nc32)C[C@@H]1OC(C)=O [Example 193] | 29 | 1.2 (≈ 2.47 µM) |  |
| C#C[C@]1(COC(=O)CCCC)O[C@@H](n2ccc3c(N)nc(Cl)nc32)C[C@@H]1OC(=O)OC [Example 189] | 19 | 23 (≈ 51 µM) |  |
| C#C[C@]1(COCOC(=O)c2ccccc2)O[C@@H](n2ccc3c(N)nc(Cl)nc32)C[C@@H]1O [Example 51] | 2.2 | 309 (≈ 698 µM) |  |
| C#C[C@]1(COC(=O)[C@H](C)c2ccccc2)O[C@@H](n2ccc3c(N)nc(Cl)nc32)C[C@@H]1O [Example 100] | 2.5 | 72 (≈ 163 µM) |  |
| C#C[C@]1(CO)O[C@@H](n2ccc3c(N)nc(Cl)nc32)C[C@@H]1OC(=O)CCCCC [Example 59, (2R,3S,5R)-5-(4-amino-2-chloro-7H-pyrrolo[2,3-d]pyrimidin-7-yl)-2-ethynyl-2-(hydroxymethyl)tetrahydrofuran-3-yl hexanoate] | 2.8 | 16 (≈ 39.3 µM) |  |
| C#C[C@]1(COC(=O)OCc2cc[nH]c(=O)c2)O[C@@H](n2ccc3c(N)nc(Cl)nc32)C[C@@H]1OC(=O)OCc1ccccc1 [Example 161] | 5.8 | < 1 |  |
| C#C[C@]1(CO)O[C@@H](n2ccc3c(N)nc(Cl)nc32)C[C@@H]1OC(=O)CCCOC(C)=O [Example 178] | 3.8 | 143 (≈ 327 µM) |  |
| C#C[C@]1(COC(=O)OCc2ccccc2)O[C@@H](n2ccc3c(N)nc(Cl)nc32)C[C@@H]1OC(=O)OCCCCCC [Example 68, ((2R,3S,5R)-5-(4-amino-2-chloro-7H-pyrrolo[2,3-d]pyrimidin-7-yl)-2-ethynyl-3-(((hexyloxy)carbonyl)oxy)tetrahydrofuran-2-yl)methylbenzyl carbonate] | 6.5 | < 1 |  |
| C#C[C@]1(COP(=O)(N[C@@H](C)C(=O)OC(C)C)Oc2ccc3ccccc3c2)O[C@@H](n2ccc3c(N)nc(Cl)nc32)C[C@@H]1O (stereo partly drawn) [Example 75] | 47 |  | 30 (≈ 47.8 µM) |
